Data as given in paper PMC12566157, “Redox-Active Quinazolinone Thioamide Ag(I) Complexes with Potent Antibacterial Activity: Mechanistic Insights and Hydrogel-Enhanced Efficacy” (Molecules, 2025).

Columns and labels:
[1] = tested on: E. coli; assay: microbe, parasite or virus in culture; details: Escherichia coli, read-out: E. coli IC50 μg mL-1
Description: (§1) The in vitro antibacterial activity of the synthesized Ag(I) complexes was investigated against two bacterial strains: Gram (+) S. aureus and the Gram (−) E. coli. The assays were conducted using the broth microdilution method to determine both the half-maximal inhibitory concentrations (IC50) and minimal inhibitory concentrations (MIC).

[2] = tested on: S. aureus; assay: microbe, parasite or virus in culture; details: Staphylococcus aureus, read-out: S. aureus IC50 μg mL-1
Description: as §1

[3] = tested on: S. aureus; assay: microbe, parasite or virus in culture; details: Staphylococcus aureus, read-out: S. aureus MIC μg mL-1
Description: as §1

[4] = molecular target: T1, glutathione reductase (GR) (Escherichia coli, UniProt A0A0H3JIZ9); assay: enzyme inhibition assay with pure E. coli GR; type: biochemical
T1 construct: gene gor

[5] = molecular target: T2, thioredoxin reductase (TrxR) (Escherichia coli, UniProt P0A9P4); assay: enzyme inhibition assay with pure E. coli TrxR; type: biochemical
T2 construct: gene trxB
T2 sequence (P0A9P4 2-321): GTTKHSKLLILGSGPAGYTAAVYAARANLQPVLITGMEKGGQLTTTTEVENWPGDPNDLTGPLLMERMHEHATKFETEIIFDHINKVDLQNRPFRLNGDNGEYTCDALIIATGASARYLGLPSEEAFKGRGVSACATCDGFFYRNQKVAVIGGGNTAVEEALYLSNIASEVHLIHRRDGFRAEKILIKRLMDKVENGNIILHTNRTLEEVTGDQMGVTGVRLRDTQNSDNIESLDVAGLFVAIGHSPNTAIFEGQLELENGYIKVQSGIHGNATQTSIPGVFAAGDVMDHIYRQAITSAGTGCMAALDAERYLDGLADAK

T1 sequence (A0A0H3JIZ9 entry or part of it): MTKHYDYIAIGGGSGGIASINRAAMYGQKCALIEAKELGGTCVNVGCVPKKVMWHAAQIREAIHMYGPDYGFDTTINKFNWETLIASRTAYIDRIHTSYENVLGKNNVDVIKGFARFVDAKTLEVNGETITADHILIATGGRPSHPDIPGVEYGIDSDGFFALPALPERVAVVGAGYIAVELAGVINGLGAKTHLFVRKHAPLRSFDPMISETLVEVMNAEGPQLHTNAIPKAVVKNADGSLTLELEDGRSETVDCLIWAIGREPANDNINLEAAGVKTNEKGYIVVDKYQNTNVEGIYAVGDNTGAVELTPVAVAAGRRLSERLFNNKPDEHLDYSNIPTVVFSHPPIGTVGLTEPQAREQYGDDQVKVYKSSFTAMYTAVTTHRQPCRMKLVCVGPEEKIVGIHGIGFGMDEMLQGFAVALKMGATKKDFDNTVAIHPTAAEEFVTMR

`c1ccc(P(c2ccccc2)c2ccccc2Oc2ccccc2P(c2ccccc2)c2ccccc2)cc1` [DPEPhos, bis[(2-diphenylphosphino)phenyl]ether] showed an IC50 [1] greater than 100 µg/mL, an IC50 [2] greater than 100 µg/mL and an MIC [3] greater than 100 µg/mL.
For `O=c1[nH]c(=S)[nH]c2ccccc12` [mqztH, 2-mercapto-4(3H)-quinazolinone], the IC50 [1] was greater than 100 µg/mL, the IC50 [2] was greater than 100 µg/mL and the MIC [3] was greater than 100 µg/mL.
Work on [AgCl(mqztH)(PPh3)2] [compound 1] yielded an IC50 [4] of 65 nM and an IC50 [5] of 215 nM.
In the case of `c1ccc(P(c2ccccc2)c2ccccc2)cc1` [PPh3, thriphenylphosphine], the IC50 [1] is reported as greater than 100 µg/mL, the IC50 [2] is reported as greater than 100 µg/mL and the MIC [3] is reported as greater than 100 µg/mL.
